IC50 data for 29 molecules are collected here from patent US20250002487A1, “HETEROCYCLIC COMPOUNDS AND USES THEREOF” (Ventus Therapeutics U.S., Inc., priority 2021, published 2025).

human-cGAS (h-cGAS), sequence (Q8N884 whole entry): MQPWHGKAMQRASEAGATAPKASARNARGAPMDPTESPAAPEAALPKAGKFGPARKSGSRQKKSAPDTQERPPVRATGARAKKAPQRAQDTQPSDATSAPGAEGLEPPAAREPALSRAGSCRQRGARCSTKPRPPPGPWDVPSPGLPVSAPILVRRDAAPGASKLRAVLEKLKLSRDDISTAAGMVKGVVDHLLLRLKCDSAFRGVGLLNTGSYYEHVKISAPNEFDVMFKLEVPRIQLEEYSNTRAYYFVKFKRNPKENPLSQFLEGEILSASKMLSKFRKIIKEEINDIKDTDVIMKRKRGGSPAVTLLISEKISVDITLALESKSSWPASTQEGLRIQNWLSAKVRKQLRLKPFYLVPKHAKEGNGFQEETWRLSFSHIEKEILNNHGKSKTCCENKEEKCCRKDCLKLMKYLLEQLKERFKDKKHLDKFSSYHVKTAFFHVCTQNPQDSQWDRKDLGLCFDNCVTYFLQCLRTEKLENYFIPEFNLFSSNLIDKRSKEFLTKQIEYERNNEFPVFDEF

The assay concerns the target human-cGAS (h-cGAS) (Homo sapiens, UniProt Q8N884). As to the kind of experiment: hcGAS Kinase-Glo Assay. Particulars: 40 nM h-cGAS, 100 μM ATP, 100 μM GTP, 25 nM dsDNA, 3 h incubation, read-out: hcGAS potency IC50. The class given is biochemical. In outline: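 IC50 values come from a luminescence-based Kinase-Glo measurement on human cGAS. Conditions follow the Lama et al. 2019 method with minor modifications.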
On to `O=C(Nc1nncs1)c1onc2c1ccc1cccnc12` [Compound 13, N-(1,3,4-thiadiazol-2-yl)isoxazolo[4,3-h]quinoline-3-carboxamide], for which the half-inhibitory concentration (IC50) lay within 500 to 1000 nM.

Consider `CSc1nnc(NC(=O)c2nc(-c3cnccn3)no2)s1` [Compound 71, N-(5-(methylthio)-1,3,4-thiadiazol-2-yl)-3-(pyrazin-2-yl)-1,2,4-oxadiazole-5-carboxamide], for which the IC50 fell in the range of 500 to 1000 nM.

On to `CSc1nnc(NC(=O)c2onc3c2CCc2cnc(C)nc2-3)s1` [Compound 174, 8-Methyl-N-(5-(methylthio)-1,3,4-thiadiazol-2-yl)-4,5-dihydroisoxazolo[4,3-h]quinazoline-3-carboxamide], for which the IC50 is not below 1000 nM.

With `O=C(Nc1nnc(-c2ccccc2)s1)c1onc2ccccc12` [Compound 19, N-(5-phenyl-1,3,4-thiadiazol-2-yl)benzo[c]isoxazole-3-carboxamide], the IC50 was not below 1000 nM.

For the molecule `CSc1nnc(NC(=O)c2nnc(N3CCCCC3c3ccccc3)o2)s1` (centres unmarked) [Compound 149, N-(5-(methylthio)-1,3,4-thiadiazol-2-yl)-5-(2-phenylpiperidin-1-yl)-1,3,4-oxadiazole-2-carboxamide], the IC50 is 500 to 1000 nM.

Turning to `O=C(Nc1nnc(-c2c(F)cccc2F)s1)c1onc2c1ccc1cccnc12` [Compound 8, N-(5-(2,6-difluorophenyl)-1,3,4-thiadiazol-2-yl)isoxazolo[4,3-h]quinoline-3-carboxamide], the IC50 fell in the range of 100 to 500 nM.

`CSc1nnc(NC(=O)c2onc3ccc(C)cc23)s1` [Compound 227, 5-methyl-N-[5-(methylsulfanyl)-1,3,4-thiadiazol-2-yl]-2,1-benzoxazole-3-carboxamide]: the half-inhibitory concentration (IC50) lay in the range of 500 to 1000 nM.

Consider `CSc1nnc(NC(=O)c2onc3c2ccc2ncccc23)s1` [Compound 271, N-(5-(methylthio)-1,3,4-thiadiazol-2-yl)isoxazolo[3,4-f]quinoline-3-carboxamide], for which the IC50 lay in the range of 500 to 1000 nM.

With `Cc1c(-c2cc(C(=O)Nc3nnc(-c4ccccc4Cl)s3)on2)cnn1C` [Compound 53, N-(5-(2-chlorophenyl)-1,3,4-thiadiazol-2-yl)-3-(1,5-dimethyl-1H-pyrazol-4-yl)isoxazole-5-carboxamide], the IC50 was in the range of 100 to 500 nM.

For `CSc1nnc(NC(=O)c2cc(-c3ccccc3)no2)s1` [Compound 208, N-[5-(methylsulfanyl)-1,3,4-thiadiazol-2-yl]-3-phenyl-1,2-oxazole-5-carboxamide], the IC50 lay in the range of 500 to 1000 nM.

As to `CSc1nnc(NC(=O)c2cc(Nc3ccccc3)cc(=O)o2)s1` [Compound 268, N-(5-(methylthio)-1,3,4-thiadiazol-2-yl)-2-oxo-4-(phenylamino)-2H-pyran-6-carboxamide], the half-inhibitory concentration (IC50) was in the range of 100 to 500 nM.

As to `CSc1nnc(NC(=O)c2cc(-c3ccc4ccncc4c3)cc(=O)o2)s1` [Compound 264, 4-(isoquinolin-7-yl)-N-(5-(methylthio)-1,3,4-thiadiazol-2-yl)-2-oxo-2H-pyran-6-carboxamide], the 50% inhibitory concentration (IC50) lay in the range of 100 to 500 nM.

Regarding `COCCOc1cc(C(=O)Nc2nnc(-c3ccccc3Cl)s2)on1` [Compound 175, N-(5-(2-chlorophenyl)-1,3,4-thiadiazol-2-yl)-3-(2-methoxyethoxy)isoxazole-5-carboxamide], the IC50 lay in the range of 100 to 500 nM.

Take `CSc1nnc(NC(=O)c2cc(-c3ncc4ccccc4n3)no2)s1` [Compound 153, N-(5-(Methylthio)-1,3,4-thiadiazol-2-yl)-3-(quinazolin-2-yl)isoxazole-5-carboxamide]: the IC50 fell in the range of 100 to 500 nM.

In the case of `CSc1nnc(NC(=O)c2cc(C(C)C)no2)s1` [Compound 82, 3-isopropyl-N-(5-(methylthio)-1,3,4-thiadiazol-2-yl)isoxazole-5-carboxamide], the IC50 fell in the range of 500 to 1000 nM.

On to `CCc1nnc(NC(=O)c2onc3ccccc23)s1` [Compound 69, N-(5-ethyl-1,3,4-thiadiazol-2-yl)benzo[c]isoxazole-3-carboxamide], for which the half-inhibitory concentration (IC50) was 500 to 1000 nM.

Consider `O=C(Nc1ccccc1)c1cc(C(=O)Nc2nnc(-c3ccccc3Cl)s2)on1` [Compound 92, N5-(5-(2-chlorophenyl)-1,3,4-thiadiazol-2-yl)-N3-phenylisoxazole-3,5-dicarboxamide], for which the IC50 lay in the range of 100 to 500 nM.

Consider `CSc1nnc(NC(=O)c2nnc(N3CCC(C)(C)CC3)o2)s1` [Compound 120, 5-(4,4-dimethylpiperidin-1-yl)-N-(5-(methylthio)-1,3,4-thiadiazol-2-yl)-1,3,4-oxadiazole-2-carboxamide], for which the IC50 lay within 500 to 1000 nM.

Consider `CSc1nnc(NC(=O)c2onc3cc(CO)ccc23)s1` [Compound 194, 6-(hydroxymethyl)-N-(5-(methylthio)-1,3,4-thiadiazol-2-yl)benzo[c]isoxazole-3-carboxamide], for which the IC50 lay within 500 to 1000 nM.

Turning to `O=C(Nc1nnc(-c2cncs2)s1)c1onc2ccccc12` [Compound 128, N-(5-(thiazol-5-yl)-1,3,4-thiadiazol-2-yl)benzo[c]isoxazole-3-carboxamide], the IC50 was not below 1000 nM.

Take `CSc1nnc(NC(=O)c2cc(-c3ncccn3)no2)s1` [Compound 152, N-(5-(Methylthio)-1,3,4-thiadiazol-2-yl)-3-(pyrimidin-2-yl)isoxazole-5-carboxamide]: the IC50 lay in the range of 100 to 500 nM.

For `O=C(Nc1nnc(-c2ccccc2Cl)s1)c1nnc(N2CCC[C@@H]2c2ccccc2)o1` [Compound 118, (R)-N-(5-(2-chlorophenyl)-1,3,4-thiadiazol-2-yl)-5-(2-phenylpyrrolidin-1-yl)-1,3,4-oxadiazole-2-carboxamide], the IC50 fell in the range of 100 to 500 nM.

Turning to `COc1cccc(Cc2ccc3noc(C(=O)Nc4nnc(SC)s4)c3c2)c1` [Compound 161, 5-(3-methoxybenzyl)-N-(5-(methylthio)-1,3,4-thiadiazol-2-yl)benzo[c]isoxazole-3-carboxamide], the IC50 was 500 to 1000 nM.

Regarding `CSc1nnc(NC(=O)c2onc3ccc(S(=O)(=O)c4ccccc4)cc23)s1` [Compound 164, N-(5-(methylthio)-1,3,4-thiadiazol-2-yl)-5-(phenylsulfonyl)benzo[c]isoxazole-3 carboxamide], the IC50 lay within 500 to 1000 nM.

Take `CSc1nnc(NC(=O)c2cn(CCC(C)(C)C)nn2)s1` [Compound 198, 1-(3,3-dimethylbutyl)-N-(5-(methylthio)-1,3,4-thiadiazol-2-yl)-1H-1,2,3-triazole-4-carboxamide]: the IC50 is not below 1000 nM.

For the molecule `Cc1nnc(NC(=O)c2onc3c2ccc2cccnc23)s1` [Compound 93, N-(5-methyl-1,3,4-thiadiazol-2-yl)isoxazolo[4,3-h]quinoline-3-carboxamide], the IC50 lay in the range of 500 to 1000 nM.

Regarding `COCc1cc(C(=O)Nc2nnc(-c3ccccc3Cl)s2)on1` [Compound 170, N-(5-(2-chlorophenyl)-1,3,4-thiadiazol-2-yl)-3-(methoxymethyl)isoxazole-5-carboxamide], the IC50 is 100 to 500 nM.

On to `CSc1nnc(NC(=O)c2onc3ccc(Oc4ccccc4)cc23)s1` [Compound 165, N-(5-(methylthio)-1,3,4-thiadiazol-2-yl)-5-phenoxybenzo[c]isoxazole-3-carboxamide], for which the IC50 was in the range of 500 to 1000 nM.

`CSc1nnc(NC(=O)c2cc(-c3ccc(Cl)cc3)cc(=O)o2)s1` [Compound 243, 4-(4-chlorophenyl)-N-(5-methylsulfanyl-1,3,4-thiadiazol-2-yl)-6-oxo-pyran-2-carboxamide]: the IC50 fell in the range of 500 to 1000 nM.
